For assay [1], the target named is T1, BTK (Homo sapiens, UniProt Q06187).
T1 construct: purchased Signalchem B10-10H
Nature of the assay: Inhibitory activity against BTK, ADP-Glo Kinase system (Promega). The format is biochemical. The essentials:
(§1)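 ADP-Glo luminescent ADP detection with recombinant human ITK (4 ng/reaction) or BTK (10 ng/reaction) and poly(Glu4,Tyr1) substrate at 0.2 µg/µl. Buffer: Tris pH 7.5, MgCl2, MnCl2, BSA, DTT. ATP 1 mM or Km (BTK 10 µM, ITK 25 µM); 1% DMSO; 1 h at 30°C; IC50 from curve fit.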
A general note: ADP-Glo turns the ADP formed in a reaction into a luminescent signal.

Assay [2] addresses T2, ITK (Homo sapiens, UniProt Q08881).
T2 construct: purchased Signalchem I13-11G-10
T2 sequence (Q08881 1-620): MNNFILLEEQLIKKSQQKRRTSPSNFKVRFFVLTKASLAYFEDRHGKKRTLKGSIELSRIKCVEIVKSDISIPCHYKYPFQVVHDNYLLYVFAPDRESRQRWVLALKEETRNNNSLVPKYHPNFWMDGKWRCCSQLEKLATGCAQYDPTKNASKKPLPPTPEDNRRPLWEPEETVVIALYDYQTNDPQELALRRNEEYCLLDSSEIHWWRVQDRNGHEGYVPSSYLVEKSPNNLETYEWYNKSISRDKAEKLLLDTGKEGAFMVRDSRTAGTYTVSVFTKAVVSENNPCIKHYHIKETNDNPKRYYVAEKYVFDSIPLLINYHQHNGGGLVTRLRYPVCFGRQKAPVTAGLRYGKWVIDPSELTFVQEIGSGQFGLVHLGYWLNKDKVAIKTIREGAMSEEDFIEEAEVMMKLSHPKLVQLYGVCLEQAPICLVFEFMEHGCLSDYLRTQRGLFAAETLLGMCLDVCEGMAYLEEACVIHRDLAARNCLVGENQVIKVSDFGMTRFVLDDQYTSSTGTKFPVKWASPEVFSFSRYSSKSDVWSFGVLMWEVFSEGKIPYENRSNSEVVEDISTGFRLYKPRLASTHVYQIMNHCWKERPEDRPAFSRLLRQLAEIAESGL
The assay can be described thus: Inhibitory activity against ITK, ADP-Glo Kinase system (Promega). The format is biochemical. The essentials:
as §1

[3] abbreviates: 1mM ATP, read-out: BTK IC50(nM) 1mM ATP.
Where [4] appears, read: Km ATP (BTK: 10 uM), read-out: BTK IC50(nM) Km ATP.
Where [5] appears, read: 1mM ATP, read-out: ITK IC50(nM) 1mM ATP.
[6] abbreviates: Km ATP (ITK: 25uM), read-out: ITK IC50(nM) Km ATP.

Where two headings read alike, the source gives them in different places. Bounds are passed on as bounds.

The term IC50 denotes the point on the concentration scale where inhibition reaches its midpoint.

T1 sequence (Q06187 whole entry): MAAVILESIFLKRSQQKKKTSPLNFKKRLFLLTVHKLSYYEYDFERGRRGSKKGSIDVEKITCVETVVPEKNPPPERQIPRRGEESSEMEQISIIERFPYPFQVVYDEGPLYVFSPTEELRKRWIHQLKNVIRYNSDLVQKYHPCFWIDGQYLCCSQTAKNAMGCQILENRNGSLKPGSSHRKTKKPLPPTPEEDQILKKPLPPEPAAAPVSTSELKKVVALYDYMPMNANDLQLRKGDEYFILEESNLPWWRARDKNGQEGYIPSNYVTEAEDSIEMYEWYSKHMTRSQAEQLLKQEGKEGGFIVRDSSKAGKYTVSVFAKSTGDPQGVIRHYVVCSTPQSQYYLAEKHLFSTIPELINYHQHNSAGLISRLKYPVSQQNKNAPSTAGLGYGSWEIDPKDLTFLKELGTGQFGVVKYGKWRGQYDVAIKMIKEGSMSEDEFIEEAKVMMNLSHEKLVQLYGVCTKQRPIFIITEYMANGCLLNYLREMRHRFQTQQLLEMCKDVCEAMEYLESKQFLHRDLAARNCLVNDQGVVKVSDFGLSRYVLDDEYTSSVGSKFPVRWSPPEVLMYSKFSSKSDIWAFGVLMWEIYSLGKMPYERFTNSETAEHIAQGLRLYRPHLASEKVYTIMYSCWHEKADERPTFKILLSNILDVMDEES

Regarding `C=CC(=O)Nc1cc(-c2nc(Nc3ncc(C)s3)cc3c2ccn3CC(C)C)c(F)cc1F` [Example 67, N-(2,4-difluoro-5-(1-isobutyl-6-((5-methylthiazol-2-yl)amino)-1H-pyrrolo[3,2-c]pyridin-4-yl)phenyl)acrylamide], the IC50 is at most 20 nM in assay [1] (setting [3]), at most 20 nM in assay [1] (setting [4]), 20 to 100 nM in assay [2] (setting [5]) and at most 20 nM in assay [2] (setting [6]).
With `C=CC(=O)N1CC(C)(Oc2nc(Nc3ncc(C)s3)cc3c2ccn3C(C)C)C1` [Example 163, 1-(3-((1-isopropyl-6-((5-methylthiazol-2-yl)amino)-1H-pyrrolo[3,2-c]pyridin-4-yl)oxy)-3-methylazetidin-1-yl)prop-2-en-1-one], the IC50 in assay [1] (setting [3]) and in assay [2] (setting [5]) was at most 20 nM throughout.
Turning to `C=CC(=O)N1C[C@H](F)[C@H](Oc2nc(Nc3ncc(C#N)s3)cc3c2ccn3CC(C)C)C1` [Example 181, 2-((4-(((3R,4S)-1-acryloyl-4-fluoropyrrolidin-3-yl)oxy)-1-isobutyl-1H-pyrrolo[3,2-c]pyridin-6-yl)amino)thiazole-5-carbonitrile], the IC50 in assay [1] (setting [3]) and in assay [2] (setting [5]) was at most 20 nM throughout.
As to `C=CC(=O)N1C2C=C(c3nc(Nc4ncc(C)s4)cc4c3ccn4C(C)C)CC1COC2` (centres unmarked) [Example 27, 1-(7-(1-isopropyl-6-((5-methylthiazol-2-yl)amino)-1H-pyrrolo[3,2-c]pyridin-4-yl)-3-oxa-9-azabicyclo[3.3.1]non-6-en-9-yl)prop-2-en-1-one], the IC50 in assay [1] (setting [4]) and in assay [2] (setting [6]) was at most 20 nM throughout.
As to `C=CC(=O)N1CC=C(c2nc(Nc3nnc(C)s3)cc3c2ccn3C(C)C)CC1` [Example 41, 1-(4-(1-isopropyl-6-((5-methyl-1,3,4-thiadiazol-2-yl)amino)-1H-pyrrolo[3,2-c]pyridin-4-yl)-3,6-dihydropyridin-1(2H)-yl)prop-2-en-1-one], the IC50 in assay [1] (setting [4]) was 20 to 100 nM; in assay [2] (setting [6]), above 500 nM.
`C=CC(=O)N1CC[C@H](Oc2nc(Nc3cc(C)[nH]n3)cc3c2ccn3C(C)C)C1` [Example 194, (S)-1-(3-((1-isopropyl-6-((5-methyl-1H-pyrazol-3-yl)amino)-1H-pyrrolo[3,2-c]pyridin-4-yl)oxy)pyrrolidin-1-yl)prop-2-en-1-one]: the IC50 in assay [1] (setting [3]) is at most 20 nM; in assay [2] (setting [5]) it was 20 to 100 nM.
With `C=CC(=O)N1CCC[C@H](Oc2nc(Nc3ncc(C)s3)cc3c2ccn3CCOC)C1` [Example 148, (S)-1-(3-((1-(2-methoxyethyl)-6-((5-methylthiazol-2-yl)amino)-1H-pyrrolo[3,2-c]pyridin-4-yl)oxy)piperidin-1-yl)prop-2-en-1-one], the IC50 in assay [1] (setting [3]) and in assay [2] (setting [5]) was at most 20 nM throughout.
For `C=CC(=O)Nc1cc(-c2nc(Nc3ncc(C)s3)cc3c2ccn3CC2CCOC2)ccc1F` (centres unmarked) [Example 72, N-(2-fluoro-5-(6-((5-methylthiazol-2-yl)amino)-1-((tetrahydrofuran-3-yl)methyl)-1H-pyrrolo[3,2-c]pyridin-4-yl)phenyl)acrylamide], the IC50 in assay [1] (setting [4]) and in assay [2] (setting [6]) was at most 20 nM throughout.
With `C=CC(=O)N1CC=C(c2nc(Nc3nc(C)cs3)cc3c2ccn3C(C)C)CC1` [Example 42, 1-(4-(1-isopropyl-6-((4-methylthiazol-2-yl)amino)-1H-pyrrolo[3,2-c]pyridin-4-yl)-3,6-dihydropyridin-1(2H)-yl)prop-2-en-1-one], the concentration for half-maximal inhibition (IC50) in assay [1] (setting [4]) and in assay [2] (setting [6]) was above 500 nM in each case.
Consider `C=CC(=O)N1CC[C@H](Oc2nc(Nc3ncc(C)s3)cc3c2ccn3Cc2ccccc2)C1` [Example 121, (S)-1-(3-((1-benzyl-6-((5-methylthiazol-2-yl)amino)-1H-pyrrolo[3,2-c]pyridin-4-yl)oxy)pyrrolidin-1-yl)prop-2-en-1-one], for which the IC50 in assay [1] (setting [4]) and in assay [2] (setting [6]) was at most 20 nM throughout.
As to `C=CC(=O)N1C2C=C(c3nc(Nc4ncc(C)s4)cc4c3ccn4CC(C)C)CC1CCC2` (centres unmarked) [Example 38, 1-(3-(1-isobutyl-6-((5-methylthiazol-2-yl)amino)-1H-pyrrolo[3,2-c]pyridin-4-yl)-9-azabicyclo[3.3.1]non-2-en-9-yl)prop-2-en-1-one], the IC50 in assay [1] (setting [3]) and in assay [2] (setting [5]) was at most 20 nM in each case.
Regarding `C=CC(=O)N1CC(C)(Oc2nc(Nc3ncc(C)s3)cc3c2ccn3CCOC)C1` [Example 168, 1-(3-((1-(2-methoxyethyl)-6-((5-methylthiazol-2-yl)amino)-1H-pyrrolo[3,2-c]pyridin-4-yl)oxy)-3-methylazetidin-1-yl)prop-2-en-1-one], the IC50 in assay [1] (setting [3]) and in assay [2] (setting [5]) was above 500 nM each time.
For the compound `C=CC(=O)Nc1ccc(F)c(-c2nc(Nc3ncc(C)s3)cc3c2ccn3CC(C)C)c1` [Example 63, N-(4-fluoro-3-(1-isobutyl-6-((5-methylthiazol-2-yl)amino)-1H-pyrrolo[3,2-c]pyridin-4-yl)phenyl)acrylamide], the IC50 was 20 to 100 nM in assay [1] (setting [3]), at most 20 nM in assay [1] (setting [4]), 100 to 500 nM in assay [2] (setting [5]) and 20 to 100 nM in assay [2] (setting [6]).
Take `C=CC(=O)N1C[C@H](F)[C@H](Oc2nc(Nc3ncc(C)s3)cc3c2ccn3CC(C)CC)C1` (stereo partly drawn) [Example 171, 1-((3S,4R)-3-fluoro-4-((1-(2-methylbutyl)-6-((5-methylthiazol-2-yl)amino)-1H-pyrrolo[3,2-c]pyridin-4-yl)oxy)pyrrolidin-1-yl)prop-2-en-1-one]: the IC50 in assay [1] (setting [3]) and in assay [2] (setting [5]) was at most 20 nM throughout.
As for `C=CC(=O)N1C[C@H](F)[C@H](Oc2nc(Nc3ncc(C)s3)cc3c2ccn3CC(C)(C)O)C1` [Example 141, 1-((3S,4R)-3-fluoro-4-((1-(2-hydroxy-2-methylpropyl)-6-((5-methylthiazol-2-yl)amino)-1H-pyrrolo[3,2-c]pyridin-4-yl)oxy)pyrrolidin-1-yl)prop-2-en-1-one], the IC50 in assay [1] (setting [3]) and in assay [2] (setting [5]) was at most 20 nM throughout.
For `C=CC(=O)N1CC=C(c2nc(Nc3ncc(C)s3)cc3c2ccn3C(C)C)CC1` [Example 2, 1-(4-(1-isopropyl-6-((5-methylthiazol-2-yl)amino)-1H-pyrrolo[3,2-c]pyridin-4-yl)-3,6-dihydropyridin-1(2H)-yl)prop-2-en-1-one], the IC50 is 20 to 100 nM in assay [1] (setting [3]), at most 20 nM in assay [1] (setting [4]), 20 to 100 nM in assay [2] (setting [5]) and at most 20 nM in assay [2] (setting [6]).
With `C=CC(=O)N1C[C@@H](Oc2nc(Nc3ncc(C)s3)cc3c2ccn3C)C[C@@H]1C` [Example 185, 1-((2S,4S)-2-methyl-4-((1-methyl-6-((5-methylthiazol-2-yl)amino)-1H-pyrrolo[3,2-c]pyridin-4-yl)oxy)pyrrolidin-1-yl)prop-2-en-1-one], the IC50 in assay [1] (setting [3]) and in assay [2] (setting [5]) was at most 20 nM throughout.
Turning to `C=CC(=O)N1CCC[C@H]1COc1nc(Nc2ncc(C)s2)cc2c1ccn2CC1CCCC1` [Example 220, (S)-1-(2-(((1-(cyclopentylmethyl)-6-((5-methylthiazol-2-yl)amino)-1H-pyrrolo[3,2-c]pyridin-4-yl)oxy)methyl)pyrrolidin-1-yl)prop-2-en-1-one], the IC50 in assay [1] (setting [3]) was at most 20 nM; in assay [2] (setting [5]), 20 to 100 nM.
The corresponding values for `C=CC(=O)N1CCCC12CC(Oc1nc(Nc3ncc(C)s3)cc3c1ccn3CC(C)C)C2` (centres unmarked) [Example 200, 1-(2-((1-isobutyl-6-((5-methylthiazol-2-yl)amino)-1H-pyrrolo[3,2-c]pyridin-4-yl)oxy)-5-azaspiro[3.4]octan-5-yl)prop-2-en-1-one] are 20 to 100 nM and 100 to 500 nM.
As to `C=CC(=O)N1C[C@H](F)[C@H](Oc2nc(Nc3ncc(C)s3)cc3c2ccn3CCF)C1` [Example 189, 1-((3S,4R)-3-fluoro-4-((1-(2-fluoroethyl)-6-((5-methylthiazol-2-yl)amino)-1H-pyrrolo[3,2-c]pyridin-4-yl)oxy)pyrrolidin-1-yl)prop-2-en-1-one], the IC50 in assay [1] (setting [3]) and in assay [2] (setting [5]) was at most 20 nM each time.
As for `C=CC(=O)N1CC[C@@H]1COc1nc(Nc2ncc(C)s2)cc2c1ccn2CC(F)(F)F` [Example 208, (R)-1-(2-(((6-((5-methylthiazol-2-yl)amino)-1-(2,2,2-trifluoroethyl)-1H-pyrrolo[3,2-c]pyridin-4-yl)oxy)methyl)azetidin-1-yl)prop-2-en-1-one], the IC50 in assay [1] (setting [3]) and in assay [2] (setting [5]) was at most 20 nM each time.
For `C=CC(=O)N1CCC=C(c2nc(Nc3ncc(C)s3)cc3c2ccn3C(C)(C)C#N)C1` [Example 23, 2-(4-(1-acryloyl-1,2,5,6-tetrahydropyridin-3-yl)-6-((5-methylthiazol-2-yl)amino)-1H-pyrrolo[3,2-c]pyridin-1-yl)-2-methylpropanenitrile], the IC50 in assay [1] (setting [4]) is 20 to 100 nM; in assay [2] (setting [6]), at most 20 nM.
